Like-named read-outs stand apart in the source and are kept apart here.
Experiments:
[1] = target: T1, recombinant human aromatase (CYP19) (Homo sapiens, UniProt P11511); experiment: Fluorescence-based aromatase activity assay; assay type: biochemical; settings: for aromatase inhibition (in words): enzymatic assay; for fold increase in aromatase inhibitory potency vs precursor 1e: compared with 3-(pyridin-3-yl)chroman-4-one 1e
T1 sequence (P11511 1-503): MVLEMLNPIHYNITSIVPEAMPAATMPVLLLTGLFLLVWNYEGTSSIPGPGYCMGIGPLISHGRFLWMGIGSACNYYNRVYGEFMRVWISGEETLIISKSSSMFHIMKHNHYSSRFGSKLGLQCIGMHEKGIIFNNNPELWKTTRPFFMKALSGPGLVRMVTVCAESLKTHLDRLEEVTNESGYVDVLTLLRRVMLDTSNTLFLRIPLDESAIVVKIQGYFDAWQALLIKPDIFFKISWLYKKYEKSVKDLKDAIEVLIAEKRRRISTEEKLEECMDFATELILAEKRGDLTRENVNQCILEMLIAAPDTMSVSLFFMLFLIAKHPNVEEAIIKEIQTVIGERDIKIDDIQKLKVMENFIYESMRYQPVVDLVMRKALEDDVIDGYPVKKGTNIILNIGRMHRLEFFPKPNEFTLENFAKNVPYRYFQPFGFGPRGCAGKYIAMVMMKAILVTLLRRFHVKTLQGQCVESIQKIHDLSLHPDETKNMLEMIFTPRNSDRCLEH

MCF-7 cells = experiment: Estrogen-dependent MCF-7 growth inhibition; assay type: cell-based, human; settings: estrogen-dependent MCF-7 cells
[2] = target: T1, recombinant human aromatase (CYP19); settings: AI previously synthesized in the authors' lab ref 9; cited from earlier work
[3] = system: non-estrogen dependent MCF-7 cells; experiment: Growth inhibition of non-estrogen dependent MCF-7 cells; assay type: cell-based, human; settings: MCF-7 cells raised without estrogen

SMILES: O=C1c2c(ccc3ccccc23)OCC1c1ccc(Oc2ccccc2)cc1 (stereo not shown) [3a, 2-(4-Phenoxyphenyl)-2,3-dihydro-1H-benzo[f]chromen-1-one]
- aromatase inhibition (in words) [1]: No significant inhibition

SMILES: O=C1c2ccccc2OCC1c1ccc(-c2ccccc2)cc1 (stereo not shown) [1c, 3-(biphenyl-4-yl)chroman-4-one]
- anti-proliferative activity on MCF-7 (in words) (MCF-7 cells): did not show anti-cancer cell activity
- aromatase inhibition (in words) [2]: inactive

SMILES: COc1ccc2c(c1)C(=O)C(c1cccnc1)CO2 (stereo not shown) [3c, 6-methoxy-3-(pyridin-3-yl)chroman-4-one]
- fold increase in aromatase inhibitory potency vs precursor 1e [1]: more than 2 fold
- anti-proliferative activity on MCF-7 (in words) (MCF-7 cells): inactive
- growth inhibition (in words) [3]: no growth inhibition was observed

SMILES: O=C1c2cc(F)ccc2OCC1c1cccnc1 (stereo not shown) [3e, 6-Fluoro-3-(pyridin-3-yl)chroman-4-one]
- fold increase in aromatase inhibitory potency vs precursor 1e [1]: 7 fold
- fold increase in aromatase inhibitory potency vs parent 1a ([1]; compared with parent molecule 1a): 36 fold
- anti-proliferative activity on MCF-7 (in words) (MCF-7 cells): inactive

SMILES: COc1ccc2c(c1)C(=O)C(c1ccc(Oc3ccccc3)cc1)CO2 (stereo not shown) [3b, 6-Methoxy-3-(4-phenoxyphenyl)chroman-4-one]
- aromatase inhibition (in words) [1]: No significant inhibition

— article PMC3933948 (Bioorganic & medicinal chemistry, 2013)
